From patent publication US8461152B2, “Arylcyclohexylethers of dihydrotetraazabenzoazulenes” (Hoffmann-La Roche Inc., priority 2008, dated 2013)
Counter-ions that a name gives are not always drawn.

Molecular target: T1, human V1a receptor (Homo sapiens, UniProt P37288)
T1 construct: expressed in transfected cells; host or cells: HEK293 cells, transiently transfected; membrane preparation
Assay: human V1a receptor binding studies (SPA, 3H-Vasopressin, membranes of transfected HEK293 cells)
Details: displacement of 3H-Vasopressin, HEK293 cell membranes, 1 h at room temperature; Ki by Cheng-Prussoff equation; read-out: pKi (hV1a) (converted)
Experimental: The human V1a receptor was cloned by RT-PCR from total human liver RNA. The coding sequence was subcloned in an expression vector after sequencing to confirm the identity of the amplified sequence. […] Cell membranes were prepared from HEK293 cells transiently transfected with the expression vector and grown in 20 liter fermenters with the following protocol.
50 g of cells are resuspended in 30 ml freshly prepared ice cold Lysis buffer (50 mM HEPES, 1 mM EDTA, 10 mM magnesium dichloride adjusted to pH=7.4+complete cocktail of protease inhibitor (Roche Diagnostics)). Homogenized with Polytron for 1 min and sonicated on ice for 2×2 minutes at 80% intensity (Vibracell sonicator). The preparation is centrifuged 20 min at 500 g at 4° C., the pellet is discarded and the supernatant centrifuged 1 hour at 43'000 g at 4° C. (19'000 rpm). The pellet is resuspended in 12.5 ml Lysis buffer+12.5 ml Sucrose 20% and homogenized using a Polytron for 1-2 min. The protein concentration is determined by the Bradford method and aliquots are stored at −80° C. until use. For binding studies 60 mg Yttrium silicate SPA beads (Amersham) are mixed with an aliquot of membrane in binding buffer (50 mM Tris, 120 mM sodium chloride, 5 mM potassium chloride, 2 mM Calcium dichloride, 10 mM magnesium dichloride) for 15 minutes with mixing. 50 μl of bead/membrane mixture is then added to each well of a 96 well plate, followed by 50 μl of 4 nM 3H-Vasopressin (American Radiolabeled Chemicals). For total binding measurement 100 μl of binding buffer are added to the respective wells, for non-specific binding 100 μl of 8.4 mM cold vasopressin and for compound testing 100 μl of a serial dilution of each compound in 2% dimethyl sulfoxide. The plate is incubated 1 h at room temperature, centrifuged […] at 1000 g and counted on a Packard Top-Count. Non-specific binding counts are subtracted from each well and data is normalized to the maximum specific binding set at 100%. To calculate an IC 50 the curve is fitted using a non-linear regression model (XLfit) and the Ki is calculated using the Cheng-Prussoff equation.

T1 sequence (P37288 whole entry): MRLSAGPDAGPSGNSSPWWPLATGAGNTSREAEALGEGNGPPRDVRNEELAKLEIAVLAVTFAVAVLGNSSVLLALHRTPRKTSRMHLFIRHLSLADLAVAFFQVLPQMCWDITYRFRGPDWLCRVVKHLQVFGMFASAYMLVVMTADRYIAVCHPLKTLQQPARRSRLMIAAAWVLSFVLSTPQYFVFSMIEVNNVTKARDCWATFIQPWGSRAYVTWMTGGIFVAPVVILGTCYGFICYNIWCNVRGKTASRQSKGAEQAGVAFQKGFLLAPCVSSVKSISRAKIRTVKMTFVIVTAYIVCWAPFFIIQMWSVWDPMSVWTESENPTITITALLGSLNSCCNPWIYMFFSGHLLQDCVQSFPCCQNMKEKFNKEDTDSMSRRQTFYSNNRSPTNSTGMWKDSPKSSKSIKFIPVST

| SMILES | Ki [nM] |
| --- | --- |
| CN1Cc2cc(Cl)ccc2-n2c(nnc2[C@H]2CC[C@H](Oc3ccc4ccccc4c3)CC2)C1 [Example 57, trans-8-Chloro-5-methyl-1-[4-(naphthalen-2-yloxy)-cyclohexyl]-5,6-dihydro-4H-2,3,5,10b-tetraaza-benzoazulene] | 5.75 |
| CC(C)(C)OC(=O)N1Cc2cc(Cl)ccc2-n2c(nnc2[C@H]2CC[C@H](Oc3cccnc3)CC2)C1 [Example 61, trans-8-Chloro-1-[4-(pyridin-3-yloxy)-cyclohexyl]-4H,6H-2,3,5,10b-tetraaza-benzoazulene-5-carboxylic acid tert-butyl ester] | 1.51 |
| CN1Cc2cc(Cl)ccc2-n2c(nnc2[C@H]2CC[C@H](Oc3cccnc3)CC2)C1 [Example 63, trans-8-Chloro-5-methyl-1-[4-(pyridin-3-yloxy)-cyclohexyl]-5,6-dihydro-4H-2,3,5,10b-tetraaza-benzoazulene] | 4.57 |
| CC(C)(C)OC(=O)N1Cc2cc(Cl)ccc2-n2c(nnc2[C@H]2CC[C@H](Oc3cncc(Cl)c3)CC2)C1 [Example 64, trans-8-Chloro-1-[4-(5-chloro-pyridin-3-yloxy)-cyclohexyl]-4H,6H-2,3,5,10b-tetraaza-benzoazulene-5-carboxylic acid tert-butyl ester] | 9.55 |
| CN1Cc2cc(Cl)ccc2-n2c(nnc2[C@H]2CC[C@H](Oc3cncc(Cl)c3)CC2)C1 [Example 66, trans-8-Chloro-1-[4-(5-chloro-pyridin-3-yloxy)-cyclohexyl]-5-methyl-5,6-dihydro-4H-2,3,5,10b-tetraaza-benzoazulene] | 9.12 |
| CC(C)(C)OC(=O)N1Cc2cc(Cl)ccc2-n2c(nnc2[C@H]2CC[C@H](Oc3ccccn3)CC2)C1 [Example 67, trans-8-Chloro-1-[4-(pyridin-2-yloxy)-cyclohexyl]-4H,6H-2,3,5,10b-tetraaza-benzoazulene-5-carboxylic acid tert-butyl ester] | 3.31 |
| Clc1ccc2c(c1)CNCc1nnc([C@H]3CC[C@H](Oc4ccccn4)CC3)n1-2 [Example 68, trans-8-Chloro-1-[4-(pyridin-2-yloxy)-cyclohexyl]-5,6-dihydro-4H-2,3,5,10b-tetraaza-benzoazulene hydrochloride] | 6.17 |
| CN1Cc2cc(Cl)ccc2-n2c(nnc2[C@H]2CC[C@H](Oc3ccccn3)CC2)C1 [Example 69, trans-8-Chloro-5-methyl-1-[4-(pyridin-2-yloxy)-cyclohexyl]-5,6-dihydro-4H-2,3,5,10b-tetraaza-benzoazulene] | 1.1 |
| CC(C)(C)OC(=O)N1Cc2cc(Cl)ccc2-n2c(nnc2[C@H]2CC[C@H](Oc3cccc(Cl)n3)CC2)C1 [Example 70, trans-8-Chloro-1-[4-(6-chloro-pyridin-2-yloxy)-cyclohexyl]-4H,6H-2,3,5,10b-tetraaza-benzo[e]azulene-5-carboxylic acid tert-butyl ester] | 9.12 |
| CN1Cc2cc(Cl)ccc2-n2c(nnc2[C@H]2CC[C@H](Oc3cccc(Cl)n3)CC2)C1 [Example 72, trans-8-Chloro-1-[4-(6-chloro-pyridin-2-yloxy)-cyclohexyl]-5-methyl-5,6-dihydro-4H-2,3,5,10b-tetraaza-benzo[e]azulene] | 2.4 |
| Clc1ccc(O[C@H]2CC[C@H](c3nnc4n3-c3ccc(Cl)cc3CNC4)CC2)nc1 [Example 74, trans-8-Chloro-1-[4-(5-chloro-pyridin-2-yloxy)-cyclohexyl]-5,6-dihydro-4H-2,3,5,10b-tetraaza-benzo[e]azulene hydrochloride] | 11.2 |
| CN1Cc2cc(Cl)ccc2-n2c(nnc2[C@H]2CC[C@H](Oc3ccc(Cl)cn3)CC2)C1 [Example 75, trans-8-Chloro-1-[4-(5-chloro-pyridin-2-yloxy)-cyclohexyl]-5-methyl-5,6-dihydro-4H-2,3,5,10b-tetraaza-benzo[e]azulene] | 2.82 |
| CC(C)(C)OC(=O)N1Cc2cc(Cl)ccc2-n2c(nnc2[C@H]2CC[C@H](Oc3ncccn3)CC2)C1 [Example 79, trans-8-Chloro-1-[4-(pyrimidin-2-yloxy)-cyclohexyl]-4H,6H-2,3,5,10b-tetraaza-benzo[e]azulene-5-carboxylic acid tert-butyl ester] | 2.57 |
